Among the data in BindingDB's records for doi:10.1016/j.bmcl.2020.127000 (Ajinomoto, 2020) are EC50 values, retold here.

pEC50: −log10 of the molar value.

A short description of the assay: Positive allosteric modulation of human TIR2/TIR3 expressed in PEAKrapid cells assessed as potentiation of sucrose-induced intracellular calcium influx by measuring sucrose EC50 at 30 uM measured for 120 secs by fluorescence based assay. Background: Calcium flux is commonly read through the fluorescence of an indicator in the cells.
Regarding `CC(C)(CC(=O)Nc1cncc(C(=O)O)c1N)NC(=O)[C@@H](N)C1CCCCC1`, the pEC50 (as a rule, the negative decadic logarithm of the EC50, by convention in mol/L) was 2.59. On to `CC(C)[C@H](N)C(=O)NC(C)(C)CC(=O)Nc1cncc(C(=O)O)c1N`, for which the pEC50 is 2.03.

As to `CC(C)C[C@H](N)C(=O)NC(C)(C)CC(=O)Nc1cncc(C(=O)O)c1N`, the pEC50 was 2.24. The result for `CC(C)(CC(=O)Nc1cncc(C(=O)O)c1N)NC(=O)[C@H](N)C1CCCCC1` reads 2.11; that for `CC(C)(CC(=O)Nc1cncc(C(=O)O)c1N)NC(=O)[C@@H](N)c1ccccc1`, 2.02. With `CC(C)(CC(=O)Nc1cncc(C(=O)O)c1N)NC(=O)C1(N)CCCCC1`, the pEC50 was 2.12.

In the case of `CC(C)(CC(=O)Nc1cncc(C(=O)O)c1N)NC(=O)[C@@H](N)CC1CCCCC1`, the pEC50 was 2.14.

Regarding `CC(C)(CC(=O)Nc1cncc(C(=O)O)c1N)NC(=O)CC[C@@H](N)Cc1ccccc1`, the pEC50 is 2.06.

For `CC(C)(CC(=O)Nc1cncc(C(=O)O)c1N)NC(=O)CC1(CN)CCCCC1`, the pEC50 was 2.37. As for `CC(C)(CC(=O)Nc1cncc(C(=O)O)c1N)NC(=O)c1cccc(N)c1`, the pEC50 is 1.97. Turning to `CC(C)(CC(=O)Nc1cncc(C(=O)O)c1N)NC(=O)c1ccc(N)cc1`, the pEC50 is 2.05. For `CC(C)(CC(=O)Nc1cncc(C(=O)O)c1N)NC(=O)[C@@H]1CCC[C@H](N)C1`, the pEC50 is 2.01. Take `CC(C)(CC(=O)Nc1cncc(C(=O)O)c1N)NC(=O)[C@H]1CC[C@H](N)CC1`: the pEC50 is 2.11. With `CC(C)(CC(=O)Nc1cncc(C(=O)O)c1N)NC(=O)[C@H]1CC[C@@H](N)CC1`, the pEC50 is 2.14. Regarding `CC(C)(CC(=O)Nc1cncc(C(=O)O)c1N)NC(=O)C1CCNC1` (centres undefined), the pEC50 was 2.10. To `CC(C)(CC(=O)Nc1cncc(C(=O)O)c1N)NC(=O)C[C@H]1CCNC1` belongs 2.12; to `CC(C)(CC(=O)Nc1cncc(C(=O)O)c1N)NC(=O)C[C@@H]1CCNC1`, 2.13; to `CC(C)(CC(=O)Nc1cncc(C(=O)O)c1N)NC(=O)C1CCNCC1`, 1.84. Consider `CC(C)(CC(=O)Nc1cncc(C(=O)O)c1N)NC(=O)c1ccccc1`, for which the pEC50 is 1.95. The result for `CC(C)(CC(=O)Nc1cncc(C(=O)O)c1N)NC(=O)c1cccc2c1CCCC2` reads 2.05; that for `CC(C)(CC(=O)Nc1cncc(C(=O)O)c1N)NC(=O)C1(c2ccccc2)CC1`, 2.08; that for `CC(C)(CC(=O)Nc1cncc(C(=O)O)c1N)NC(=O)CC1CCCCC1`, 2.27. The result for `CC(C)(CC(=O)Nc1cncc(C(=O)O)c1N)NC(=O)CCC1CCCCC1` reads 1.96; that for `CC(C)(CC(=O)Nc1cncc(C(=O)O)c1N)NC(=O)C1CCCCC1`, 2.21; that for `CC(C)(CC(=O)Nc1cncc(C(=O)O)c1N)NC(=O)CC1CCCC1`, 2.29. In the case of `CC(C)C(=O)NC(C)(C)CC(=O)Nc1cncc(C(=O)O)c1N`, the pEC50 is 2.10.

Regarding `CC(C)(CC(=O)Nc1cncc(C(=O)O)c1N)NC(=O)C(C)(C)C`, the pEC50 was 2.03. For `CC(C)CC(=O)NC(C)(C)CC(=O)Nc1cncc(C(=O)O)c1N`, the pEC50 is 2.14.

With `CC(C)(C)CC(=O)NC(C)(C)CC(=O)Nc1cncc(C(=O)O)c1N`, the pEC50 was 2.09. For the molecule `CCCCCC(=O)NC(C)(C)CC(=O)Nc1cncc(C(=O)O)c1N`, the pEC50 is 2.18.

For the molecule `CCCCCCC(=O)NC(C)(C)CC(=O)Nc1cncc(C(=O)O)c1N`, the pEC50 is 2.11. Consider `CCCCCCCC(=O)NC(C)(C)CC(=O)Nc1cncc(C(=O)O)c1N`, for which the pEC50 is 1.99.

As for `CCCCCCCCCCCC(=O)NC(C)(C)CC(=O)Nc1cncc(C(=O)O)c1N`, the pEC50 was 1.93. The result for `CCCCCCCC/C=C\CCCCCCCC(=O)NC(C)(C)CC(=O)Nc1cncc(C(=O)O)c1N` reads 2.00. The result for `CC(C)C[C@H](NC(=O)[C@@H](NC(=O)OC(C)(C)C)C1CCCCC1)C(=O)NC(C)(C)CC(=O)Nc1cncc(C(=O)O)c1N` reads 2.43; that for `CC[C@H](C)[C@H](NC(=O)[C@@H](NC(=O)OC(C)(C)C)C1CCCCC1)C(=O)NC(C)(C)CC(=O)Nc1cncc(C(=O)O)c1N`, 2.48; that for `CC(C)C[C@H](NC(=O)[C@@H](N)C1CCCCC1)C(=O)NC(C)(C)CC(=O)Nc1cncc(C(=O)O)c1N`, 2.25. Consider `CC[C@H](C)[C@H](NC(=O)[C@@H](N)C1CCCCC1)C(=O)NC(C)(C)CC(=O)Nc1cncc(C(=O)O)c1N`, for which the pEC50 was 2.25. Regarding `CC(C)(CC(=O)Nc1cncc(C(=O)O)c1N)NC(=O)[C@@H](NC(=O)[C@@H](N)C1CCCCC1)C1CCCCC1`, the pEC50 is 2.60.
